Experiments:
PC-3 cells = assay: Cell proliferation assay (CellTiter Glo), PC-3; format: cell-based; details: Homo sapiens, PC-3, 168 h; cell growth inhibition, six or seven days total treatment; read-out: PC-3 IC50
Protocol: (§1) IC50 values were calculated and graphed using the model “log(inhibitor) vs. response—Variable slope” included in GraphPad Prism 5 (San Diego, CA). The Ki values were further calculated using the equation below where [L] was the radioligand concentration (1 nM) using in this study. Kd value was 0.332 nM. Ki=IC50/(1+[L]/Kd) c. AR transactivation: Human AR cloned into a CMV vector backbone was used for the transactivation study. HEK-293 cells were plated at 80,000 cells per well of a 24 well plate in DME+5% csFBS. Twenty four hours later, the cells were transfected using Lipofectamine (Invitrogen, Carlsbad, CA) with 0.25 μg GRE-LUC, 0.01 μg CMV-LUC (renilla luciferase) and 25 ng of the AR in OPTIMEM medium. The cells were treated 24 hrs after transfection with various ligands (10^−12 to 10^−5 M final concentrations) and luciferase assay were performed 48 hours after transfection. Firefly values were normalized to renilla luciferase values and the values were represented as relative light units (RLU). Agonist and antagonist assays for the test article were performed in the absence and in the combination with 0.1 nM R1881, respectively. Data were represented as EC50 (for agonists) and IC50 (for antagonists) obtained from four parameter logistics curve. Cell culture and proliferation assays: LNCaP, PC-3, 22RV1, MCF-7, HT-29, and HCT-116 cells were procured from American Type Culture Collection (ATCC). Cells were cultured in medium recommended by the ATCC. Cell culture medium was obtained from Fisher scientific (Waltham, MA) and serum was obtained from Hyclone (San Angelo, TX).
(§2) Cells were plated at varying density in the respective growth medium in 96 well plates. 24 hr later, cells were treated, in triplicate or quadruplicate, with test articles prepared in a range of concentrations by series dilution of DMSO stock solutions in growth medium and incubated for three to seven days. The number of viable 22RV1 and HT-29 cells was measured using CellTiter Glo assay (CTG, Promega, Madison, WI) after three days of treatment. The other types of cancer cells were re-treated at three or four days and the number of viable cells was measured using CTG assay after a total treatment time of six or seven days. Cell viability data were plotted using GraphPad Prism (GraphPad Software, Inc., San Diego, CA). In addition, a nonlinear regression model with a sigmoidal dose response and variable slope within GraphPad Prism was used to calculate the IC50 value of individual test articles. Additional cell proliferation assays: Other cancer cell lines are tested in a cell proliferation assay. For example, SK-OV-3 or OVCAR3 ovarian cancer cells are tested. […] The number of viable cells is measured using CellTiter Glo assay (CTG, Promega, Madison, WI) or similar. […]

Human recombinant PARP1 = Human recombinant PARP1 (Homo sapiens, UniProt P09874); assay: RBC HotSpot PARP1 radioisotope-based filter binding assay; format: biochemical; details: 2.5 nM enzyme, histone H4, 10 μM 32P-NAD+; read-out: PARP1 IC50
Human recombinant PARP1, sequence (P09874 whole entry): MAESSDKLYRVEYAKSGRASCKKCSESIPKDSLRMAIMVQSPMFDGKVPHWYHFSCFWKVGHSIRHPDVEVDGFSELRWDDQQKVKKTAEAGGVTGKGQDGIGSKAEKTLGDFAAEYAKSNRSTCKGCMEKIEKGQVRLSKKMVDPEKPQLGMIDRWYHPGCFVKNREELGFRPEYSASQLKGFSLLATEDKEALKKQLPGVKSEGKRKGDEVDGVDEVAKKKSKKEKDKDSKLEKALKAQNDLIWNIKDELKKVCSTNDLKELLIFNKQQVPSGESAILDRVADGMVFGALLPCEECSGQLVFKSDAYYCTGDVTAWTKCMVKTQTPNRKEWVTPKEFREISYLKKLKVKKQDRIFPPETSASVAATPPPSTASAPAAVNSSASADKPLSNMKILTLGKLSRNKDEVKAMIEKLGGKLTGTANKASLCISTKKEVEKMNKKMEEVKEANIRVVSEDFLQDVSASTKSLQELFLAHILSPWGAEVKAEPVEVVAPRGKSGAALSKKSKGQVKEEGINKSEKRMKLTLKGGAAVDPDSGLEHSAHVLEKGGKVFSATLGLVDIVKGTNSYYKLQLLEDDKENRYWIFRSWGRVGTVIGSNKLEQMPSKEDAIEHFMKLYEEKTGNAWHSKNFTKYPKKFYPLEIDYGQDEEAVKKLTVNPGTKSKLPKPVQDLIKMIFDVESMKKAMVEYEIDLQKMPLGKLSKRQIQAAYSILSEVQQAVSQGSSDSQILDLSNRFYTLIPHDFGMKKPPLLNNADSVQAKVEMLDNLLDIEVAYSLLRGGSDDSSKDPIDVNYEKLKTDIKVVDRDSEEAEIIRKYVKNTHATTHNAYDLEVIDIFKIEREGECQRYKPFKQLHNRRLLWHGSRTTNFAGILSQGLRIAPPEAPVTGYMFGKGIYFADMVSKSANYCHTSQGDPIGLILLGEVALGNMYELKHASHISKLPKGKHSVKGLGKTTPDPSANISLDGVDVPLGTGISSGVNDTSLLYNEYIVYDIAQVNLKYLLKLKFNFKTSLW
Protocol: (§3) The following methods are for evaluating the in vitro biology properties of the test articles. • a. RBC HotSpot Poly(ADP-ribose) Polymerases 1 (PARP1) and Poly(ADP-ribose) Polymerases 2 (PARP2) Assays: The assay principle is radioisotope-based filter binding assay where incorporation of radioisotope-labeled NAD^+ into the substrate captured on filter is detected after washout free NAD^+. Data were analyzed using Excel and GraphPad Prism software for IC50 curve fits. Each assay was conducted with PJ34 as a positive control. • i. PARP1 assay: Human recombinant PARP1 at a final concentration of 2.5 nM was combined with histone H4 (20 μM) and test articles at various concentrations in reaction buffer (50 mM Tris-HCL, pH 8.0, 50 mM NaCl, 10 mM MgCl2, 1 mM DTT, 1% DMSO, and 20 μg/mL activated DNA). The solution was inoculated for 20 min at room temperature and the reaction initiated by adding [adenylate-^32P]-Nicotinamide Adenine Dinucleotide, ^32P-NAD^+ at a final concentration of 10 μM. After incubation for 2 hour at room temperature, the reaction mixture was filtered and washed with 0.75% phosphoric acid for radioactivity detection. • ii. PARP2 assay: Human recombinant PARP2 at a final concentration of 2.5 nM was combined with histone H3 (20 μM) and test articles at various concentrations in reaction buffer (50 mM Tris-HCL, pH 8.0, 50 mM NaCl, 10 mM MgCl2, 1 mM DTT, 1% DMSO, and 20 μg/mL activated DNA). The solution was inoculated for 20 min at room temperature and the reaction was initiated by adding [adenylate-^32P]-Nicotinamide Adenine Dinucleotide, ^32P-NAD^+ at a final concentration of 10 μM. After incubation for 2 hour at room temperature, the reaction mixture was filtered and washed with 0.75% phosphoric acid for radioactivity detection. • b. AR binding assay: AR in LNCaP cytosol was used for determining the binding affinity of test articles and the reference compound—progesterone (Sigma, Cat: E2785, St. Louis, MO). IC50s were determined using 8 concentrations/compound. Cytosol was plated at 200 μg/well (100 μL) into a 96-well conical polypropylene plate (Agilent, Cat: 5042-1385, Santa Clara, CA) and mixed with 3 μL of test compound. After adding 100 μL of ^3H-methyltrienolone (PerkinElmer, Cat: NET590250UC, San Jose, CA), the plate was sealed and shaken at 300 rpm at 4° C. for 24 hours. Post incubation, 100 μL of radioligand adsorption buffer containing 10 mM Tris-HCl, pH 7.4; 1.5 mM EDTA; 1 mM DTT; 0.25% charcoal; 0.0025% dextran was added to individual well. Plate was shaken for 15 min at 4′C followed by centrifugation at 3000 rpm for 30 min at 4° C. 150 μL of supernatant was transferred into scint-tube (PerkinElmer, Cat: 6000192) and mixed with 2 mL of Ultima Gold Cocktail (PerkinElmer, Cat: 6013329). Radioactivity was counted using a TriCarb 2910 TR scintillation counter (PerkinElmer). Inhibition of the radioactivity by test articles were calculated using the equation below: % Inhibition=(1−(Assay well−Average_LC)/(Average_HC−Average_LC))×100%.

HCT-116 cells = assay: Cell proliferation assay (CellTiter Glo), HCT-116; format: cell-based; details: Homo sapiens, HCT-116, 168 h; cell growth inhibition, six or seven days total treatment; read-out: HCT-116 IC50
Protocol: as §1, §2

LNCaP cells = assay: Cell proliferation assay (CellTiter Glo), LNCaP; format: cell-based; details: Homo sapiens, 168 h, cell growth inhibition, six or seven days total treatment, read-out: LNCaP IC50
Protocol: as §1
Cells were plated at varying density in the respective growth medium in 96 well plates. 24 hr later, cells were treated, in triplicate or quadruplicate, with test articles prepared in a range of concentrations by series dilution of DMSO stock solutions in growth medium and incubated for three to seven days. The number of viable 22RV1 and HT-29 cells was measured using CellTiter Glo assay (CTG, Promega, Madison, WI) after three days of treatment. The other types of cancer cells were re-treated at three or four days and the number of viable cells was measured using CTG assay after a total treatment time of six or seven days. Cell viability data were plotted using GraphPad Prism (GraphPad Software, Inc., San Diego, CA). In addition, a nonlinear regression model with a sigmoidal dose response and variable slope within GraphPad Prism was used to calculate the IC50 value of individual test articles. Additional cell proliferation assays: Other cancer cell lines are tested in a cell proliferation assay. For example, SK-OV-3 or OVCAR3 ovarian cancer cells are tested. Cells are cultured in medium recommended by the supplier (e.g., ATCC or JCRB Cell Bank), at 37° C. in a 5% CO2 environment. For the proliferation assay, cells are plated in the growth medium in 96 well plates. Seeding density is adjusted according to the cell type. 24 hr later, cells are treated, in triplicate or quadruplicate, with test articles prepared in a range of concentrations by series dilution of DMSO stock solutions in growth medium, and typically incubated for three to seven days, with test article-containing medium replaced after three or four days. The number of viable cells is measured using CellTiter Glo assay (CTG, Promega, Madison, WI) or similar. Cell viability data are plotted using GraphPad Prism (GraphPad Software, Inc., San Diego, CA). […]

Human recombinant PARP2 = Human recombinant PARP2 (Homo sapiens, UniProt Q9UGN5); assay: RBC HotSpot PARP2 radioisotope-based filter binding assay; format: biochemical; details: 2.5 nM enzyme, histone H3, 10 μM 32P-NAD+; read-out: PARP2 IC50
Human recombinant PARP2, sequence (Q9UGN5 whole entry): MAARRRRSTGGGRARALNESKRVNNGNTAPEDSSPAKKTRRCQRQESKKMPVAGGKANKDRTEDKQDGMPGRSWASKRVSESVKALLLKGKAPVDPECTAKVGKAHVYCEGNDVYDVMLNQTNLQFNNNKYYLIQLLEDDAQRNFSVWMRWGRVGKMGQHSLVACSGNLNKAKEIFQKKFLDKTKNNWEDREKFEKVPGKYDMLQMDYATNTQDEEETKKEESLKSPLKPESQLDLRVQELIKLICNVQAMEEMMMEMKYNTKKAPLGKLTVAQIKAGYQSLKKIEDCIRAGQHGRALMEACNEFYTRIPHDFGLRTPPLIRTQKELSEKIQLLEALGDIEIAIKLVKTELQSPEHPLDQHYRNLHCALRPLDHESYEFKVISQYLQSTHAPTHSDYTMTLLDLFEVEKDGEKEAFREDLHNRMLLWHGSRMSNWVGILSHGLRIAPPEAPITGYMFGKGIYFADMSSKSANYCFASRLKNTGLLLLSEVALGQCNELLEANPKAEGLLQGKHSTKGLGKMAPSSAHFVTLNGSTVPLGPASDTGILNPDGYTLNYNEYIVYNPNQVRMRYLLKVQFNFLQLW
Protocol: as §3

22RV1 cells = assay: Cell proliferation assay (CellTiter Glo), 22RV1; format: cell-based; details: Homo sapiens, 22Rv1, 72 h; cell growth inhibition, three days of treatment; read-out: 22RV1 IC50
Protocol: as §1
Cells were plated at varying density in the respective growth medium in 96 well plates. 24 hr later, cells were treated, in triplicate or quadruplicate, with test articles prepared in a range of concentrations by series dilution of DMSO stock solutions in growth medium and incubated for three to seven days. The number of viable 22RV1 and HT-29 cells was measured using CellTiter Glo assay (CTG, Promega, Madison, WI) after three days of treatment. The other types of cancer cells were re-treated at three or four days and the number of viable cells was measured using CTG assay after a total treatment time of six or seven days. Cell viability data were plotted using GraphPad Prism (GraphPad Software, Inc., San Diego, CA). In addition, a nonlinear regression model with a sigmoidal dose response and variable slope within GraphPad Prism was used to calculate the IC50 value of individual test articles. Additional cell proliferation assays: Other cancer cell lines are tested in a cell proliferation assay. For example, SK-OV-3 or OVCAR3 ovarian cancer cells are tested. Cells are cultured in medium recommended by the supplier (e.g., ATCC or JCRB Cell Bank), at 37° C. in a 5% CO2 environment. For the proliferation assay, cells are plated in the growth medium in 96 well plates. Seeding density is adjusted according to the cell type. 24 hr later, cells are treated, in triplicate or quadruplicate, with test articles prepared in a range of concentrations by series dilution of DMSO stock solutions in growth medium, and typically incubated for three to seven days, with test article-containing medium replaced after three or four days. The number of viable cells is measured using CellTiter Glo assay (CTG, Promega, Madison, WI) or similar. Cell viability data are plotted using GraphPad Prism (GraphPad Software, Inc., San Diego, CA). In addition, a nonlinear regression model with a sigmoidal dose response and variable slope within GraphPad Prism is used to calculate the IC50 value of individual test articles. Similarly, HEK-293 and HeLa calls can also be tested by methods known in the art. • f. Nuclear translocation: LNCaP cells are plated on coverslips in 24 well plates in growth medium. Twenty-four hours after plating, medium is changed to RPMI+1% csFBS and the cells are maintained in this medium for two days. Medium is replaced again and the cells are treated. […]

Structure (SMILES) | IC50 (PC-3 cells) [nM] | IC50 (Human recombinant PARP1) [nM] | IC50 (HCT-116 cells) [nM] | IC50 (LNCaP cells) [nM] | IC50 (Human recombinant PARP2) [nM] | IC50 (22RV1 cells) [nM]
Cn1ncnc1[C@H]1c2n[nH]c(=O)c3cc(F)cc(c23)N[C@@H]1c1ccc(NC(=O)CCCCCNC(=O)c2ccc(N3C(=S)N(c4ccc(C#N)c(C(F)(F)F)c4)C(=O)C3(C)C)cc2F)cc1 [Compound 1.3, 4-(3-(4-cyano-3-(trifluoromethyl)phenyl)-5,5-dimethyl-4-oxo-2-thioxoimidazolidin-1-yl)-2-fluoro-N-(6-((4-((8S,9R)-5-fluoro-9-(1-methyl-1H-1,2,4-triazol-5-yl)-3-oxo-2,7,8,9-tetrahydro-3H-pyrido[4,3,2-de]phthalazin-8-yl)phenyl)amino)-6-oxohexyl)benzamide] | 8800 | 2 | > 30000 | 490 | 0.5 | 
Cn1ncnc1[C@H]1c2n[nH]c(=O)c3cc(F)cc(c23)N[C@@H]1c1ccc(NC(=O)CCCCCO[C@H]2CC[C@H]3[C@@H]4CC[C@H]5CC(=O)CC[C@]5(C)[C@H]4CC[C@]23C)cc1 [Compound 1.4, 6-(((5S,8R,9S,10S,13S,14S,17S)-10,13-dimethyl-3-oxohexadecahydro-1H-cyclopenta[a]phenanthren-17-yl)oxy)-N-(4-(5-fluoro-9-(1-methyl-1H-1,2,4-triazol-5-yl)-3-oxo-2,7,8,9-tetrahydro-3H-pyrido[4,3,2-de]phthalazin-8-yl)phenyl)hexanamide] | 20 | 2 | 110 | 90 | 0.4 | 
C[C@](O)(CS(=O)(=O)c1ccc(OCCCCCCN2CCN(C(=O)c3cc(Cc4n[nH]c(=O)c5ccccc45)ccc3F)CC2)cc1)C(=O)Nc1ccc(C#N)c(C(F)(F)F)c1 [Compound 1.96, (R)-N-(4-cyano-3-(trifluoromethyl)phenyl)-3-(4-(6-(4-(2-fluoro-5-((4-oxo-3,4-dihydrophthalazin-1-yl)methyl)benzoyl)piperazin-1-yl)hexyloxy)phenylsulfonyl)-2-hydroxy-2-methylpropanamide] |  | 6 |  |  | 0.5 | 
C[C@]12CCCC[C@@H]1CC[C@@H]1[C@@H]2CC[C@]2(C)[C@@H](OCCCCCC(=O)N3CCN(C(=O)c4cc(Cc5n[nH]c(=O)c6ccccc56)ccc4F)CC3)CC[C@@H]12 [Compound 1.115] |  | 25.7 |  |  | 1.5 | 
C[C@]12CC[C@@H]3c4ccc(O)cc4CC[C@H]3[C@@H]1CC[C@@H]2OCCCCCC(=O)N1CCN(C(=O)c2cc(Cc3n[nH]c(=O)c4ccccc34)ccc2F)CC1 [Compound 2.2, 4-(4-fluoro-3-(4-(6-((8R,9S,13S,14S,17S)-3-hydroxy-13-methyl-7,8,9,11,12,13,14,15,16,17-decahydro-6H-cyclopenta[a]phenanthren-17-yloxy)hexanoyl)piperazine-1-carbonyl)benzyl)phthalazin-1(2H)-one] |  |  |  |  |  | 390
Cn1ncnc1[C@@H]1c2n[nH]c(=O)c3cc(F)cc(c23)N[C@H]1c1ccc(NC(=O)CCCCCNC(=O)c2ccc(N3C(=S)N(c4ccc(C#N)c(C(F)(F)F)c4)C(=O)C3(C)C)cc2F)cc1 [ent-1.3, 4-(3-(4-cyano-3-(trifluoromethyl)phenyl)-5,5-dimethyl-4-oxo-2-thioxoimidazolidin-1-yl)-2-fluoro-N-(6-((4-((8R,9S)-5-fluoro-9-(1-methyl-1H-1,2,4-triazol-5-yl)-3-oxo-2,7,8,9-tetrahydro-3H-pyrido[4,3,2-de]phthalazin-8-yl)phenyl)amino)-6-oxohexyl)benzamide] |  | 79 |  | > 100000 | 16 | 
